Measurements from PMC10776879, “In vitro screening of topical formulation excipients for epithelial toxicity in cancerous and non-cancerous cell lines” (EXCLI Journal, 2023).
“Also recorded” adds a separate entry of the source.

Experiments:
[1] = tested on: primary skin fibroblasts (FB); experiment: MTT cell viability assay; type: cell-based, human; conditions: 24 h exposure
Experimental: (§1) Cells were seeded into the 96-well cell culture plates in 100 μl of complete culture medium at the initial density of 2x10^4 (cells/ml). Cells were incubated under 5 % CO2 at 37 °C for 24 hours for adhering to the wells and medium was then replaced with 100 μl of fresh medium containing excipient solution at the required final concentration. Each concentration was tested in minimum of 5 replicates and control cells were exposed to the culture medium only.
(§2) After cell incubation for 24 h, the excipient-containing medium was removed, and 100 μl of MTT in PBS (5 mg/ml) diluted 1:10 in medium was then added in the dark. Plates were further incubated for 2-3 h, after which time the medium was removed and the purple formazan product was dissolved by adding 200 μl of DMSO to each well. Plates were then placed in a shaker for 5 min at room temperature and the absorbance of the resulting solutions was measured at 570 nm using a microplate reader (Multiskan™ FC Microplate Photometer). The effect of each treatment was calculated as the percentage of tetrazolium salt reduction by viable cells against the negative control (cells treated with culture medium only).
(§3) To assess the excipients' cytotoxicity, the dose-response effect of each excipient was measured against the cell lines. The cytotoxicity value for each concentration of the excipients was expressed as percentage of viability against the untreated control wells (the optical density of untreated cells was set at 100 % viability) to construct dose-response curves.
(§4) All IC50 values were expressed as µg/ml. The percentage viability was calculated as follows: […]

[2] = tested on: WM164 human melanoma cells; experiment: Crystal violet (CV) cell viability assay; type: cell-based; conditions: 24 h exposure
Experimental: (§5) Cells were seeded into the 96-well cell culture plates in 100 μl of complete culture medium at the initial density of 2x10^4 (cells/ml). Cells were incubated under 5 % CO2 at 37 °C for 24 hours for adhering to the wells and medium was then replaced with 100 μl of fresh medium containing excipient solution at the required final concentration. Each concentration was tested in minimum of 5 replicates and control cells were exposed to the culture medium only. Fixed cells were stained with crystal violet dye solution to screen cell viability under treatment conditions. Cells are fixed by 4 % (v/v) paraformaldehyde in PBS for 10 minutes. Crystal violet assay of 0.05 % (v/v) is prepared by 1:4 dilution of the crystal violet stock solution (v/v) in 4 % (v/v) paraformaldehyde. The fixed cells were washed twice with PBS and covered with 250 µl crystal violet working solution. The plates were placed on a bench rocker with medium frequency (20 oscillations per minute) at room temperature for 20 minutes. The plates were emptied and washed under indirect stream of tap water for three times and inverted on filter paper. The plates were taped gently on the paper to remove any remaining liquid and air dried with no lid for minimum of 2 hr at room temperature. After the plates were photographed, blue dye was dissolved in DMSO and the optical density of each well was measured at 570 nm (OD570) with a plate reader (Multiskan™ FC Microplate Photometer). The effect of each treatment was calculated as the percentage of crystal viable staining of surviving attached cells, against the negative control (cells treated with culture medium only). To assess the excipients' cytotoxicity, the dose-response effect of each excipient was measured against the cell lines. The cytotoxicity value for each concentration of the excipients was expressed as percentage of viability against the untreated control wells (the optical density of untreated cells was set at 100 % viability) to construct dose-response curves. […] All IC50 values were expressed as µg/ml. The percentage viability was calculated as follows: […]

D24 human melanoma cells [3] = experiment: Crystal violet (CV) cell viability assay; type: cell-based; conditions: 24 h exposure
Experimental: as §5

[4] = tested on: HaCaT human keratinocytes; experiment: Crystal violet (CV) cell viability assay; type: cell-based; conditions: 24 h exposure
Experimental: as §5

[5] = tested on: WM1366 human melanoma cells; experiment: Crystal violet (CV) cell viability assay; type: cell-based; conditions: 24 h exposure
Experimental: as §5

[6] = tested on: primary skin fibroblasts (FB); experiment: Crystal violet (CV) cell viability assay; type: cell-based, human; conditions: 24 h exposure
Experimental: as §5

[7] = tested on: WM164 human melanoma cells; experiment: MTT cell viability assay; type: cell-based; conditions: 24 h exposure
Experimental: as §1, §2, §3, §4

D24 human melanoma cells [8] = experiment: MTT cell viability assay; type: cell-based; conditions: 24 h exposure
Experimental: as §1, §2, §3, §4

[9] = tested on: HaCaT human keratinocytes; experiment: MTT cell viability assay; type: cell-based; conditions: 24 h exposure
Experimental: as §1, §2, §3, §4

[10] = tested on: WM1366 human melanoma cells; experiment: MTT cell viability assay; type: cell-based; conditions: 24 h exposure
Experimental: as §1, §2, §3, §4

[11] = tested on: human cell lines (WM164, WM1366, D24, HaCaT, FB); experiment: MTT and CV cytotoxicity, statements over all tested cell lines; type: cell-based; conditions: for Irritancy ranking: rank by MTT and CV IC50 over all cell lines, 1 = most cytotoxic
Experimental: as §1, §2
Fixed cells were stained with crystal violet dye solution to screen cell viability under treatment conditions. Cells are fixed by 4 % (v/v) paraformaldehyde in PBS for 10 minutes. Crystal violet assay of 0.05 % (v/v) is prepared by 1:4 dilution of the crystal violet stock solution (v/v) in 4 % (v/v) paraformaldehyde. The fixed cells were washed twice with PBS and covered with 250 µl crystal violet working solution. The plates were placed on a bench rocker with medium frequency (20 oscillations per minute) at room temperature for 20 minutes. The plates were emptied and washed under indirect stream of tap water for three times and inverted on filter paper. The plates were taped gently on the paper to remove any remaining liquid and air dried with no lid for minimum of 2 hr at room temperature. After the plates were photographed, blue dye was dissolved in DMSO and the optical density of each well was measured at 570 nm (OD570) with a plate reader (Multiskan™ FC Microplate Photometer). The effect of each treatment was calculated as the percentage of crystal viable staining of surviving attached cells, against the negative control (cells treated with culture medium only).
as §3
The cytotoxicity of the excipients was expressed in terms of an IC50 values (concentration causing 50 % death of the cell population) (Goldberg and Frazier, 1989[37]). […] All IC50 values were expressed as µg/ml. The percentage viability was calculated as follows: […]

[12] = tested on: human leukemic cells (CCRF); set-up: method as in Duncan et al., 1994[25]; conditions: ref Duncan et al., 1994[25]; cited from earlier work
[13] = Table 1, physicochemical information of the excipients, source not given; cited from earlier work

| Substance | IC50 (μg/ml) [Mean, Range] FB, MTT [1] | IC50 (μg/ml) [Mean, Range] WM164, CV [2] | IC50 (μg/ml) [Mean, Range] D24, CV (D24 human melanoma cells [3]) | IC50 (μg/ml) [Mean, Range] HaCaT, CV [4] | IC50 (μg/ml) [Mean, Range] WM1366, CV [5] | IC50 (μg/ml) [Mean, Range] FB, CV [6] | IC50 (μg/ml) [Mean, Range] WM164, MTT [7] | IC50 (μg/ml) [Mean, Range] D24, MTT (D24 human melanoma cells [8]) | IC50 (μg/ml) [Mean, Range] HaCaT, MTT [9] | IC50 (μg/ml) [Mean, Range] WM1366, MTT [10] | Cytotoxicity (result in words) ([11]; all cell lines, at the applied concentrations, 24 h) | Irritancy ranking [11] | IC50, MTT assay [12] | HLB [13] | Concentration causing significant inhibition of cell growth ([11]; all cell lines) | IC50 ([11]; over the tested cell lines, this study) |
| --- | --- | --- | --- | --- | --- | --- | --- | --- | --- | --- | --- | --- | --- | --- | --- | --- |
| Propylene glycol dicaprylocaprate [Labrafac®] | > Max Conc. | > Max Conc. | > Max Conc. | > Max Conc. | > Max Conc. | > Max Conc. | > Max Conc. | > Max Conc. | > Max Conc. | > Max Conc. | non-toxic; also recorded: did not induce any reduction in cell viability; also recorded: caused no toxicity to any cell lines; also recorded: No damaging effects on cell growth | 5 |  |  |  |  |
| Triton X-100 [reference compound] | 0.1034 (0.08 to 0.16) μg/ml | 0.0265 µg/mL | 0.043 (0.04 to 0.045) μg/ml | 0.044 (0.042 to 0.047) μg/ml | 0.089 µg/mL | 0.094 (0.08 to 0.13) μg/ml | 0.0042 (0.002 to 0.01) μg/ml | 0.0429 (0.04 to 0.05) μg/ml | 0.0417 (0.04 to 0.043) μg/ml | 0.083 µg/mL |  | 1 | 1 mg/L | 13.5 | 0.004 µg/mL | < 0.08 mg/L |
